Experiments:
Details in all cases: 48 h
NOMO1 [1] = test: AUC of viability dose-response curve (% viability x log10 dose units); higher = less sensitive
How it was run: (§1)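 Library compounds in DMSO were applied for 48 h at 37°C at 11 threefold doses (47 μM to 0.79 nM) to medium-adapted leukemia cells in 1536-well plates holding 500 or 1000 cells/well. Luminescence from CellTiter-Glo One was normalised plate by plate against DMSO and cell-free wells. Area under the curve came from trapezoidal integration of a log-logistic fit, after scaling curves that rose above full viability and discarding those that failed quality control. The fit had four parameters and used log10 doses.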

P12-Ichikawa [2] = test: as above
How it was run: as §1

SEM cells [3] = test: as above
How it was run: as §1

NOMO1 [4] = test: cell viability relative to DMSO control; higher = less cytotoxic
How it was run: (§2)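 Viability is a per-plate percentage relative to DMSO wells, with cell-free wells as background. CellTiter-Glo One luminescence was read after 48 h at 37°C on 1536-well plates (5 μl) of NOMO1 or SEM (500 cells/well) or P12-Ichikawa (1000 cells/well) leukemia cells. The cells had been adapted for at least four passages in each medium and pin-dosed with library compounds in DMSO from 47 μM to 0.79 nM in 11 threefold steps.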

P12-Ichikawa [5] = test: as above
How it was run: as §2

SEM cells [6] = test: as above
How it was run: as §2

CN1CCN(c2ccc([N+](=O)[O-])c3no[n+]([O-])c23)CC1
AUC of viability dose-response curve
Details	NOMO1 [1]	P12-Ichikawa [2]	SEM cells [3]
HPLM + 10% dialyzed FBS	457	435	418
RPMI 5 mM glucose + 10% FBS	432	437	464
RPMI 5 mM glucose + 10% dialyzed FBS	421	436	424

cell viability [%]
Details	NOMO1 [4]	P12-Ichikawa [5]	SEM cells [6]
HPLM + 10% dialyzed FBS, 0.000781 µM	86.5	84.1	93.2
HPLM + 10% dialyzed FBS, 0.00234 µM	101	85.5	89
HPLM + 10% dialyzed FBS, 0.00702 µM	110	87.8	87.3
HPLM + 10% dialyzed FBS, 0.0211 µM	114	93.8	94.7
HPLM + 10% dialyzed FBS, 0.0632 µM	107	99	81.1
HPLM + 10% dialyzed FBS, 0.19 µM	111	91.5	95.2
HPLM + 10% dialyzed FBS, 0.569 µM	100	94.2	97
HPLM + 10% dialyzed FBS, 1.71 µM	105	90.6	85.9
HPLM + 10% dialyzed FBS, 5.12 µM	116	95.7	88.7
HPLM + 10% dialyzed FBS, 15.4 µM	86.6	95.2	82.2
HPLM + 10% dialyzed FBS, 46.1 µM	56.6	82.9	52.4
RPMI 5 mM glucose + 10% FBS, 0.000781 µM	88.4	86.1	84.6
RPMI 5 mM glucose + 10% FBS, 0.00234 µM	99.6	92.4	103
RPMI 5 mM glucose + 10% FBS, 0.00702 µM	87.6	93.1	91.4
RPMI 5 mM glucose + 10% FBS, 0.0211 µM	93.3	89	101
RPMI 5 mM glucose + 10% FBS, 0.0632 µM	92.9	94.7	105
RPMI 5 mM glucose + 10% FBS, 0.19 µM	103	97.7	106
RPMI 5 mM glucose + 10% FBS, 0.569 µM	89.5	93.2	87.4
RPMI 5 mM glucose + 10% FBS, 1.71 µM	85.1	88.1	101
RPMI 5 mM glucose + 10% FBS, 5.12 µM	94.1	95.4	110
RPMI 5 mM glucose + 10% FBS, 15.4 µM	83.9	86.6	98.4
RPMI 5 mM glucose + 10% FBS, 46.1 µM	68.1	91.3	69.1
RPMI 5 mM glucose + 10% dialyzed FBS, 0.000781 µM	81.5	91.9	85.9
RPMI 5 mM glucose + 10% dialyzed FBS, 0.00234 µM	78.1	91.9	97.3
RPMI 5 mM glucose + 10% dialyzed FBS, 0.00702 µM	91.3	91.2	93.4
RPMI 5 mM glucose + 10% dialyzed FBS, 0.0211 µM	85.6	92.1	89.3
RPMI 5 mM glucose + 10% dialyzed FBS, 0.0632 µM	96.1	98.8	85.2
RPMI 5 mM glucose + 10% dialyzed FBS, 0.19 µM	95.6	91.8	99.4
RPMI 5 mM glucose + 10% dialyzed FBS, 0.569 µM	92.5	93.6	99.1
RPMI 5 mM glucose + 10% dialyzed FBS, 1.71 µM	95.9	89	93.3
RPMI 5 mM glucose + 10% dialyzed FBS, 5.12 µM	86.6	90.2	92.4
RPMI 5 mM glucose + 10% dialyzed FBS, 15.4 µM	87.4	91.1	76.1
RPMI 5 mM glucose + 10% dialyzed FBS, 46.1 µM	72.4	77.8	46.1

Source: the supplement of paper PMC11451515
